From publication PMC10014103, “The immunometabolite itaconate stimulates OXGR1 to promote mucociliary clearance during the pulmonary innate immune response” (The Journal of Clinical Investigation, 2023) come the findings set out here.

Values joined by “and” are separate entries in the source; they are usually repeats but may differ in a detail not shown here. Identical values can stand only once.

For one data set, the target named is T1, mouse OXGR1 (Mus musculus, UniProt Q6IYF8).
T1 construct: expressed in transfected cells; host or cells: HEK293
Put plainly: Aequorin assay (calcium mobilization) in HEK293 cells overexpressing mouse OXGR1. The class given is cell-based. The conditions noted are these: aequorin assay, mOXGR1 in HEK293 cells; read-out: EC50. How it is done: Thirty-six hours after transfection, cells were maintained in serum-free medium for 12 hours and then loaded with 5 μM coelenterazine for 3 hours. Cells were trypsinized and resuspended at a density of 5 × 10^5 cells/mL in HBSS supplemented with 10 mM HEPES and 0.5% BSA. Cell suspensions of 100 μL were aliquoted into 96-well plates.
In general terms: Calcium flux is commonly read through the fluorescence of an indicator in the cells.

A further data set concerns the target T2, human GPCRs (Homo sapiens, UniProt Q96P68).
T2 construct: expressed in transfected cells; host or cells: HEK293
Put plainly: Screen of 301 human GPCRs in transfected HEK293 cells (aequorin, Gα16 coexpression). The following applies: 301 GPCRs, ligand final 0.625 mM; result for OXGR1. In kind it is cell-based. From the text: In our search for the function and mechanism of secreted ITA, we noted the signaling of the GPCR proteins SUCNR1/GPR91 and OXGR1/GPR99, which sense the TCA metabolites succinate and α-KG, which are structurally similar to ITA ([27]). To test the hypothesis that ITA may similarly signal through a GPCR, we performed a screening of human GPCRs in transfected HEK293 cells and measured GPCR-dependent calcium mobilization (Figure 1E and Supplemental Figure 1; supplemental material available online with this article; https://doi.org/10.1172/JCI160463DS1). In order to allow more GPCRs to couple with the calcium pathway, we optimized the screening system by inducing coexpression of the promiscuous Gq family α subunit Gα16 ([34]). We examined 301 GPCRs that cover more than 70% of the nonolfactory GPCRs encoded by the human genome ([35]).
For the aequorin assay, HEK293 cells were transfected with aequorin plasmids (Addgene no. 78734), Gα16 plasmid, and GPCR plasmids. Thirty-six hours after transfection, cells were maintained in serum-free medium for 12 hours and then loaded with 5 μM coelenterazine for 3 hours. […] Ligands (100 μL, diluted to 1.25 mM in HBSS buffer, with a final concentration of 0.625 mM) were injected into plates, and luminance was recorded for 30 seconds using the BioTek Synergy H1 plate reader.

Another data set concerns OXGR1. The data set is described as follows: Cellular thermal shift assay of OXGR1. The class given is binding, human. The conditions noted are these: 1 mM ITA, 37 to 62 °C. How it is done:
Supplementary Figure 4. ITA increases the thermostability of OXGR1
Cells expressing Myc-tagged BirA along with AviTag-tagged wildtype (A) or R110A mutant (B) OXGR1 were treated with 1 μM biotin for 16 hours in serum-free medium to biotinylate OXGR1 in native conformation. Cells were treated with or without 1mM ITA, lysed, and incubated under different temperatures (from 37 to 62℃) for 3 minutes.
Denatured protein was removed by centrifuge. Biotinylated OXGR1 was determined by Western blot and quantified. […]

The test system of data set [1] is primary human bronchial epithelial cells. Put plainly: Calcium imaging (Fluo-4AM) of primary human bronchial epithelial cells. In kind it is cell-based. The conditions noted are these: 0.5 mM ITA. How it is done: For calcium imaging of human primary bronchial epithelial cells, cells were infected with 2 CRISPR lentiviruses targeting OXGR1 and cultured for 2 days before calcium imaging. For calcium imaging of primary mouse cells, freshly isolated mouse tracheas were cut into rings, placed onto collagen-coated dishes, and cultured in DMEM supplemented with 10% FBS. Cells were loaded with 5 μM Fluo-4AM for 30 minutes in HBSS buffer, washed twice, and incubated for another 15 minutes for fully deesterification of Fluo-4AM. Cells loaded with Fluo-4AM were monitored with the BioTek Cytation 5 Cell imaging system every 300 ms for a total of 1.5 minutes after ligand administration. Fluorescence was quantified with ImageJ software (NIH).

Data set [2] relates to primary mouse respiratory epithelial cells (ALI culture). Put plainly: Bead movement in ALI culture of primary mouse respiratory epithelial cells. The conditions noted are these: 500 μM ITA, Oxgr1+/+ vs Oxgr1–/–. In kind it is cell-based. On the procedure: (§1) . When they reached full confluence, the cells were differentiated by exposure to air and cultured in a serum-free medium for 20 days. ALI culturing of primary human bronchial epithelium was performed following the manufacturer’s manual ([…] Technologies). Briefly, cells were maintained in PneumaCult-Ex Plus medium on a Transwell insert. Medium on the lateral side was switched to PneumaCult-ALI medium. The apical side of the Transwell membrane was then carefully washed with prewarmed Dulbecco’s PBS (DPBS). Cells were differentiated by exposure to air for 3 weeks. The medium was changed every 2 days.
(§2) For the measurement of bead movement in ALI culture, the apical side of the ALI culture inserts was washed with PBS 5 times to fully remove mucus. The inserts were transferred to HBSS buffer supplemented with 30 mM HEPES and the indicated ligand, and 20 μL bath buffer containing red fluorescent beads was added to the apical side. After 15 minutes of equilibration, bead movement was monitored with the BioTek Cytation 5 cell imaging system.

In data set [3] the test system is primary human respiratory epithelial cells (ALI culture). Put plainly: Bead movement in ALI culture of primary human bronchial epithelial cells. The class given is cell-based. The conditions noted are these: 500 μM ITA, OXGR1-dependent. On the procedure: as §1, §2
Data set [4] concerns Pseudomonas aeruginosa strain PAO1. Put plainly: Mouse intranasal infection with P. aeruginosa strain PAO1, CFU in BAL and lung. In kind it is in vivo. The following applies: intranasal 1 mM ITA with PAO1, 12 hours after infection. How it is done: A 1 × 10^7 log-phase PAO1 strain in 40 μL PBS was used for infection of the mice. Mice were gently restrained by the scruff at a 45° angle. PBS with the indicated strains was delivered to the nares. PBS alone or with 1 mM ITA was codelivered along with PAO1. Mouse mouths were covered during the whole procedure to ensure complete inhalation into the nose and the lower respiratory tract. BAL and lung tissue were collected 12 hours of infection and plated in cetyl trimethyl ammonium bromide (CTAB) selection agar. The numbers of CFU were counted after 18 hours of culture.

Data set [5] can be described thus: ITA concentration in BAL after intranasal supplementation (LC-MS). The class given is in vivo. The conditions noted are these: mouse, bronchoalveolar lavage fluid (BAL), other: intranasal, 20 µL of saline containing 1 mM ITA; 0.5 hours after intranasal ITA supplementation. How it is done: The concentrations of urea in plasma and BAL were determined using a urea assay kit (Solarbio). For ITA determination, samples were extracted by 80% (vol/vol) chilled (–80°C) methanol and analyzed with an ultra-high-performance liquid chromatograph (Acquity UPLC I-Class, Waters) coupled to a triple quadrupole mass spectrometer (Xevo TQ-XS, Waters). For α-KG determination, samples were lyophilized and derived by methoxyamine (MilliporeSigma) and N-methyl-N-[tert-butyldimethylsilyl] trifluoroacetamide (MilliporeSigma) in pyridine (MilliporeSigma). The derivatized sample was injected into an Agilent 7890A-5975C GC-MS system with an HP-5MS column.
Supplementary Figure 8. ITA level is positively correlated with Mucin 5b or β-defensin 1 concentration in BAL from mice after P. aeruginosa infection
A. ITA concentration in BAL was determined by LC-MS after intranasal delivery of 20μL saline containing PAO1 and 1mM ITA (n=3-4).B-C. Comparison of Mucin 5b (B) and β-defensin1 (C) concentration in BAL of P. aeruginosainfected mice with indicated genotypes (n=4-10). Significance is determined by paired t-test. n.s., no significance. D-E. Correlation analysis of ITA concentration and Mucin 5b (D) or β-defensin1 concentration (E) in BAL ofP. aeruginosainfected WT mice. […]

T1 sequence (Q6IYF8 whole entry): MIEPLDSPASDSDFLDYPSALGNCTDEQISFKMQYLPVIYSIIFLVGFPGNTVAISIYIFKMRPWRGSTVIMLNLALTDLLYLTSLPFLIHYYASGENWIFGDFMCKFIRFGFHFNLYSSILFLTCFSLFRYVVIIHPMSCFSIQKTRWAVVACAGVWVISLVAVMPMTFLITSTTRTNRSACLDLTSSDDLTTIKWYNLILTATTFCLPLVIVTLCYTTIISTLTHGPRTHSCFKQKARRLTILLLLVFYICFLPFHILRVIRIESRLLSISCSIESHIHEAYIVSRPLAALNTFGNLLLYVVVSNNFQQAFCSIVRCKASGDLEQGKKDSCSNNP

Consider `C=C(CC(=O)O)C(=O)O` [ITA, itaconate], for which, at mouse OXGR1, the EC50 (in general, the concentration that produces a half-maximal response) was 416 µM and ~400 µM. The “calcium mobilization in GPCR screen” value on human GPCRs was “the only receptor that showed robust and reproducible calcium mobilization”. The “thermal stability of WT OXGR1” value in the data set on OXGR1 is “increased the thermal stability”. In data set [1] (control cells), the calcium mobilization entry is “robust calcium mobilization”. For the same molecule, the “calcium mobilization after depletion of OXGR1” value in data set [1] (sgOXGR1) was “abolished by depletion of OXGR1”. Besides, the results for the movement of beads result in data set [2] and in data set [3] were “could accelerate the movement of beads in an Oxgr1-dependent manner” and “accelerated the movement of beads”, respectively. The “bacterial overgrowth phenotype (CFU in BAL and lung), Irg1–/– mice” value in data set [4] was “rescued the bacterial overgrowth phenotype”. Moreover, the concentration at 0.5 h in data set [5] was in the range of 200 to 300 nM.
